The values that follow come from patent US9408842B2, “Substituted pyrano and furanoquinolines, their preparation and use as medicaments” (LABORATORIOS DEL DR. ESTEVE S.A., priority 2012, dated 2016).

The Ki is the equilibrium dissociation constant of an inhibitor or competing ligand from its target.

The assay addresses T1, σ1-receptor (Cavia porcellus, UniProt Q60492).
T1 construct: Guinea pig brains were homogenized in 10 vols; (w/v) of Tris-HCl 50 mM 0.32 M sucrose, pH 7.4; from tissue; host or cells: guinea pig brain membranes
As to the kind of experiment: binding assay for the σ1-receptor, [3H]-(+)-pentazocine, brain membranes. To be noted: guinea pig brain membranes; radioligand [3H]-(+)-pentazocine 5.0 nM; 150 min at 37° C.; nonspecific binding with 1 μM haloperidol. As to the method:
Guinea pig brains were homogenized in 10 vols. (w/v) of Tris-HCl 50 mM 0.32 M sucrose, pH 7.4, with a Kinematica Polytron PT 3000 at 15000 r.p.m. for 30 s. The homogenate was centrifuged at 1000 g for 10 min at 4° C. and the supernatants collected and centrifuged again at 48000 g for 15 min at 4° C. The pellet was resuspended in 10 volumes of Tris-HCl buffer (50 mM, pH 7.4), incubated at 37° C. for 30 min, and centrifuged at 48000 g for 20 min at 4° C. Following this, the pellet was re-suspended in fresh Tris-HCl buffer (50 mM, pH 7.4) and stored on ice until use.
The radioligand used was [^3H]-(+)-pentazocine at 5.0 nM and the final volume was 200 μl. The incubation was initiated with the addition of 100 μl of membrane at a final tissue concentration of approximately 5 mg tissue net weight/mL and the incubation time was 150 m. at 37° C. After incubation, the membranes were collected onto pretreated glass fiber filterplate (MultiScreen-FC, Millipore), with polyethylenimine 0.1%. The filters were washed two times with 200 μl of washing buffer (50 mM Tris Cl, pH=7.4) and then 25 μl of Ecoscint H liquid scintillation cocktail were added. […] Nonspecific binding was determined with 1 μM haloperidol.

Counter-ions that a name gives are not always drawn.

T1 sequence (Q60492 whole entry): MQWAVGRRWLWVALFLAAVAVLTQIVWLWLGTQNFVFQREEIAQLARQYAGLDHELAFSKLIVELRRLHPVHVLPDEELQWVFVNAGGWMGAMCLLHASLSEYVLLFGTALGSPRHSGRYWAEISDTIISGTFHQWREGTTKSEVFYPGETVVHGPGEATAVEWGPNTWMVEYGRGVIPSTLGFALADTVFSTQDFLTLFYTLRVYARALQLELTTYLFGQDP

`CC(C)CCOc1ccc2c(c1)[C@H]1OCCC[C@H]1[C@@H](C1CCOCC1)N2` [Example 114, (4aS,5R,10bS)-9-(isopentyloxy)-5-(tetrahydro-2H-pyran-4-yl)-3,4,4a,5,6,10b-hexahydro-2H-pyrano[3,2-c]quinoline] gave a Ki of 0.03 µM. Compound `CC(C)CCOc1ccc2c(c1)[C@H]1OCCC[C@H]1[C@@H](C1CCCCC1)N2` (racemic) [Example 27, (4aSR*,5RS*,10bSR*)-5-cyclohexyl-9-(isopentyloxy)-3,4,4a,5,6,10b-hexahydro-2H-pyrano[3,2-c]quinoline hydrochloride] had a Ki of 0.0516 µM.

Take `CC(C)CCOc1ccc2c(c1)[C@H]1OCCC[C@H]1[C@@H](C1CCCC1)N2` (racemic) [Example 105, (4aSR*,5RS*,10bSR*)-5-cyclopentyl-9-(isopentyloxy)-3,4,4a,5,6,10b-hexahydro-2H-pyrano[3,2-c]quinoline hydrochloride]: the affinity corresponds to a Ki of 0.124 µM.
